Data reported in US4942163A, “1(2H)-isoquinolinones and 1-isoquinolineamines as cancer chemotherapeutic agents” (E. I. Du Pont de Nemours and Company, priority 1989, dated 1990).
≈ marks a conversion by molar mass, not a printed value.

How the values were obtained:
P388 murine leukemia = P388 murine leukemia test (survival of tumor-bearing mice); assay type: in vivo, mouse; conditions: i.p. once daily for nine days from day 1
Protocol: The P388 tumor line originated in 1955 as a lymphocytic leukemia in a female DBA/2 mouse after the skin was painted with 3-methylcholanthrene. The tumor line is maintained by serial passage in female DBA/2 mice. On day 0, female CDF1 mice weighing 18-22 g are inoculated intraperitoneally with 1×10^6 P388 leukemia cells harvested from the ascites of DBA/2 mice. The mice are randomized into groups of six each and the test compounds and vehicle control are administered intraperitoneally once daily for nine consecutive days beginning day 1. A decrease in body weight on day 5 that is ≥20% is considered an indication of toxicity. The acceptable control mean survival time is 9-14 days. Results are expressed as a percentage of the mean survival time of the vehicle-treated control group according to the formula: [formula] Mice which survive for 30 days are considered cured and are not included in the calculation of the mean survival time. The NCI criteria for activity are used. A compound is considered to have moderate activity against P388 leukemia if it has a % T/C ≥125%, and it is considered to have good activity if it has a % T/C ≥150%.

L1210 murine leukemia = L1210 murine leukemia test (survival of tumor-bearing mice); assay type: in vivo, mouse; conditions: i.p. once daily for nine days from day 1
Protocol: The L1210 tumor line originated in 1948 as a lymphocytic leukemia in a female DBA/2 mouse after the skin was treated with 0.2% 20-methylcholanthrene in ethyl ether. The tumor line is maintained by serial passage in female DBA/2 mice. On day 0, female CDF1 mice weighing 18-22 g are inoculated with 1×10^5 L1210 leukemia cells harvested from the ascites of DBA/2 mice. The mice are randomized into groups of six each and the test compounds and vehicle control are administered intraperitoneally once daily for nine consecutive days beginning on day 1. A ≥20% decrease in body weight on day 5 is considered an indication of toxicity. The acceptable control mean survival time is 8-11 days. Results are expressed as a percentage of the mean survival time of the vehicle-treated control group according to the formula: [formula] Mice which survive for 30 days are considered cured and are not included in the calculation of the mean survival time. The NCI criteria for activity are used. A compound is considered to have moderate activity against L1210 leukemia if it has a % T/C ≥125%, and it is considered to have good activity if it has a % T/C ≥150%.

[1] = test system: LOX human amelanotic melanoma; experiment: LOX human amelanotic melanoma xenograft test in athymic nude mice; assay type: in vivo; conditions: for % T/C (median survival time vs vehicle control): i.p. every fourth day, three injections
Source text: The LOX human amelanotic melanoma tumor line was obtained from Dr. Oystein Fodstad, Department of Biochemistry, Norwegian Radium Hospital, Oslo, Norway. The line is maintained by serial passage in athymic NCR-NU mice. On day 0, athymic nude mice, all of one sex weighing a minimum of 18 g for males and 17 g for females, are inoculated intraperitoneally with 1×10^6 LOX melanoma cells harvested from the ascites of athymic mice. The mice are randomized into groups of six each and the test compounds and vehicle control are administered intraperitoneally every fourth day beginning day 1 for a total of three injections. Animals are evaluated for toxicity on day 10. A decrease in body weight ≥20% is considered an indication of toxicity. The acceptable control median survival time is 17-24 days. Results are expressed as a percentage of the median survival time of the vehicle-treated control group according to the formula: [formula]
The NCI criteria for activity are used. A compound is considered to have moderate activity against LOX melanoma if it has a % T/C ≥140%, and it is considered to have good activity if it has a % T/C ≥200%.

[2] = test system: RPMI-7272 human melanoma cells; experiment: In vitro RPMI-7272 human melanoma cell growth inhibition; assay type: cell-based; conditions: RPMI-7272 melanoma, inhibition of cell doublings by 50%, 72 h, read-out: ID50 (the source's name)
Protocol: The compounds of this invention were also tested for their ability to inhibit the growth of human melanoma RPMI-7272 cells in vitro. Human melanoma RPMI-7272 cells (Quinn et al. [J. Natl. Cancer Inst. 59, 301-305 (1977)]) were propagated in RPMI-1640 medium supplemented with 10 mM Tricine (pH 7.8), 10 mM HEPES (pH 7.3), 0.075% sodium bicarbonate, and 10% (vol/vol) heat-inactivated (56° C., 30 minutes) fetal bovine serum in a 95% air:5% CO2 humidified atmosphere. Cells were seeded at 3×10^5 per 35 mm plate to initiate growth inhibition studies. Cultures to receive growth medium only (control cultures) were set up in quadruplicate; cultures to receive varying concentrations of compounds were set up at one dish per dose of compound. Twenty-four hours post-seeding, duplicate control cell cultures were trypsinized and cells were counted using a Coulter Counter (day 1 control counts). At this time, varying concentrations of test compounds, from 100 to 0.00001 μg/mL were added to cultures and growth medium only was added to control cultures. Seventy-two hours after the addition of compound, cells were trypsinized and counted. The numbers of cell population doublings (day 4) in the presence or absence of compound were calculated. The ID50 represents the dose of compound (in μg/mL) required to inhibit the number of cell doublings by 50%. A compound is considered to have in vitro activity against RPMI-7272 melanoma if it has an ID50 ≤1 μg/mL. The number of population doublings of control cultures during 72 hours was between 3 and 4. […] Dilutions to 1 mg/mL in complete growth medium were made, followed by stock preparations of 100 and 30 μg/mL in complete growth medium. Serial ten-fold dilutions in complete medium were formulated from the 100 and 30 μ g/mL stocks, respectively, and added to cultures.

B16 murine melanoma = B16 murine melanoma test (survival of tumor-bearing mice); assay type: in vivo, mouse; conditions: i.p. once daily for nine days from day 1
Protocol: The B16 tumor line arose spontaneously in 1954 on the skin at the base of the ear of a C57BL mouse. The tumor line is maintained by serial passage in female C57BL mice. On day 0, female B6C3F1 mice are inoculated intraperitoneally with 0.5 mL of a 10% tumor brei. This brei is prepared by homogenizing fresh B16 tumors, grown subcutaneously in C57BL mice, in cold physiological saline. Mice are randomized in groups of ten each, with 20 animals being in the control group. The test compounds and vehicle control are administered intraperitoneally once daily for nine consecutive days beginning on day 1. A ≥20% decrease in body weight on day 5 is considered an indication of toxicity. The acceptable mean control survival time is 14-22 days. Results are expressed as a percentage of the mean survival time of the vehicle-treated control group according to the formula: [formula] Mice which survive 90 days are considered cured and are not included in the calculation of the mean survival time. The NCI criteria for activity are used. A compound is considered to have moderate activity against B16 melanoma if it has a % T/C ≥125%, and it is considered to have good activity if it has a % T/C ≥150%.

IC50 [2] [µg/mL]	SMILES	other results
0.055	C[N+](C)(C)c1ccc2cc(-c3cccc4ccccc34)[nH]c(=O)c2c1 [Example 5]	–
0.29 (≈ 1.02 µM)	Cc1cccc2c(=O)[nH]c(-c3cccc4ccccc34)cc12 [Example 7]	–
0.0016 (≈ 0.00561 µM)	Cc1ccc2c(=O)[nH]c(-c3cccc4ccccc34)cc2c1 [Example 9]	–
0.53 (≈ 1.86 µM)	Cc1cccc2cc(-c3cccc4ccccc34)[nH]c(=O)c12 [Example 15]	–
0.22 (≈ 0.814 µM)	Nc1nc(-c2cccc3ccccc23)cc2ccccc12 [Example 16]	–
0.95 (≈ 3.34 µM)	Cc1cccc2c(N)nc(-c3cccc4ccccc34)cc12 [Example 18]	–
0.055 (≈ 0.18 µM)	Nc1nc(-c2cccc3ccccc23)cc2cc(Cl)ccc12 [Example 19]	–
0.0016 (≈ 0.00563 µM)	Cc1ccc2cc(-c3cccc4ccccc34)nc(N)c2c1 [Example 22]	–
0.07 (≈ 0.23 µM)	Nc1nc(-c2cccc3ccccc23)cc2cccc(Cl)c12 [Example 23]	–
0.05 (≈ 0.176 µM)	Cc1cccc2cc(-c3cccc4ccccc34)nc(N)c12 [Example 24]	–

More lines, now with the values behind:

SMILES	IC50 [2] [µg/mL]	other results
O=c1[nH]c(-c2cccc3ccccc23)cc2ccccc12 [Example 1, 3-(1-Naphthalenyl)-1(2H)-isoquinolinone]	–	% T/C (mean survival time vs vehicle control) (P388 murine leukemia; dose 200 mg/kg): 161%; % T/C (mean survival time vs vehicle control) (L1210 murine leukemia; dose 100 mg/kg): 148%; Cures (number of survivors/total at 60 days) ([1]; dose 400 mg/kg): 1/6; % T/C (median survival time vs vehicle control) ([1]; dose 400 mg/kg): 168%
O=c1[nH]c(-c2cccc3ccccc23)cc2ccc(Cl)cc12 [Example 2, 7-chloro-3-(1-naphthalenyl)-1(2H)-isoquinolinone]	0.005 (≈ 0.0164 µM)	% T/C (mean survival time vs vehicle control) (P388 murine leukemia; dose 100 mg/kg): 138%
Cc1ccc2cc(-c3cccc4ccccc34)[nH]c(=O)c2c1 [Example 3, 7-Methyl-3-(1-naphthalenyl)-1(2H)-isoquinolinone]	0.0072 (≈ 0.0252 µM)	% T/C (mean survival time vs vehicle control) (P388 murine leukemia; dose 100 mg/kg): 152%; % T/C (mean survival time vs vehicle control) (L1210 murine leukemia; dose 200 mg/kg): 133%; Cures (number of survivors/total at 60 days) ([1]; dose 240 mg/kg): 2/6; % T/C (median survival time vs vehicle control) ([1]; dose 240 mg/kg): 271%; % T/C (mean survival time vs vehicle control) (B16 murine melanoma; dose 100 mg/kg): 149%
CN(C)c1ccc2cc(-c3cccc4ccccc34)[nH]c(=O)c2c1.Cl [Example 4, 7-(Dimethylamino)-3-(1-naphthalenyl)-1(2H)-isoquinolinone hydrochloride]	0.001	% T/C (mean survival time vs vehicle control) (L1210 murine leukemia; dose 6 mg/kg): 156%
Cc1ccc2c(N)nc(-c3cccc4ccccc34)cc2c1 [Example 20, 6-Methyl-3-(1-naphthalenyl)-1-isoquinolineamine]	0.00077 (≈ 0.00271 µM)	% T/C (mean survival time vs vehicle control) (B16 murine melanoma; dose 6 mg/kg): 130%
Nc1nc(-c2cccc3ccccc23)cc2ccc(Cl)cc12 [Example 21, 7-Chloro-3-(1-naphthalenyl)-1-isoquinolineamine]	0.0094 (≈ 0.0308 µM)	% T/C (mean survival time vs vehicle control) (B16 murine melanoma; dose 100 mg/kg): 138%
Cc1ccc2cc(-c3cccc4ccccc34)nc(N3CCN(C)CC3)c2c1 [Example 31, 7-Methyl-1-(4-methyl-1-piperazinyl)-3-(1-naphthalenyl)-isoquinoline]	–	% T/C (mean survival time vs vehicle control) (B16 murine melanoma; dose 6 mg/kg): 133%
Cc1ccc2cc(-c3cccc4ccccc34)nc(N(C)CCN(C)C)c2c1 [Example 40, N,N,N'-Trimethyl-N'-(7-methyl-3-(1-naphthalenyl)-1-isoquinolinyl)-1,2-ethanediamine]	–	% T/C (mean survival time vs vehicle control) (B16 murine melanoma; dose 0.75 mg/kg): 135%
